Source: patent US20240247301A1, “DIAGNOSTIC ASSAY FOR CLASSIC INBORN GALACTOSEMIA” (Ohio State Innovation Foundation, priority 2022, published 2024)
Where “and” joins values, the source holds several entries; their conditions need not be identical. Equal values may be shown once. Read-outs that look alike come from different tables or passages of the source.

Experiments:
[1] = test system: wild-type GalT (galactose-1-phosphate uridylyltransferase); conditions: cited from earlier work; for Km: read-out: Km (for Gal-1-P)
[2] = target: T1, Duarte GalT (galactose-1-phosphate uridylyltransferase, Duarte variant) (Homo sapiens, UniProt P07902, N314D); test: Duarte GalT-YidA coupled assay (SUMO tag removed from YidA); type: biochemical
T1 construct: coupled to YidA or PGM-G6PDH (helper enzymes)
T1 sequence (P07902 whole entry N314D): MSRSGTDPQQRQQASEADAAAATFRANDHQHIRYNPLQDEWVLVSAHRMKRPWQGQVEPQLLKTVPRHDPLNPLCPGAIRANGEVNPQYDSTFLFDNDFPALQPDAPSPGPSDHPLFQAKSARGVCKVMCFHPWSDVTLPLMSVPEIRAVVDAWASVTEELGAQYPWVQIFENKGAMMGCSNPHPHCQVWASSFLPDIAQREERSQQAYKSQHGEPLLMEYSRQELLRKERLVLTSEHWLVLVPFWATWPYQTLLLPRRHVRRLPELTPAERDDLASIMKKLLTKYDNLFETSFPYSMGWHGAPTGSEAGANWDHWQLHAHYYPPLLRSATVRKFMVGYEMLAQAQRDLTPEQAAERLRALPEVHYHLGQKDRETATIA
Procedure: Next, it was sought to obtain recombinant GalT for proof-of-concept assays. The ready availability of the Duarte GalT clone from Addgene (GALTA-c001) led to use of this enzyme in the current studies.
(§1) Transformation and overexpression of GalT were performed as described elsewhere (Lai et al. 2021). For purification, a single bacterial colony expressing GalT was used to inoculate 2.5 mL of Dynamite growth medium (Taylor et al. 2017) supplemented with […] kanamycin and grown overnight at 37° ° C. with shaking. This saturated overnight culture was used to seed 250 mL of fresh dynamite medium containing the antibiotic. […]
(§2) Recombinant GalT was purified using the same protocol as that described above for YidA. The concentration of the His6-tagged GalT was determined using a molar extinction coefficient (85,620 M^−1 cm^−1) at 280 nm, and the final preparation was stored at −80° C. in small aliquots, which were subsequently thawed immediately before use in biochemical assays.
These 2-μL aliquots were added to a 384-well plate which were pre-dispensed to test wells 18 μL of water and 5 μL of malachite green reagent. […] To determine the Km and kcat values, the initial velocity calculated at each substrate concentration was subject to the Michaelis-Menten curve-fitting option in Kaleidagraph (Synergy Software).

[3] = target: T1, Duarte GalT (galactose-1-phosphate uridylyltransferase, Duarte variant); test: Duarte GalT-PGM-G6PDH coupled assay (traditional); type: biochemical
Procedure: It was sought to compare the Duarte GalT activity determined using the YidA assay versus the existing method. To this end, measurements were conducted using the traditional PGM-G6PDH coupled assay (McCorvie et al. 2013). By titrating the coupled enzymes, the threshold that permits the most sensitive detection was first determined.
as §1, §2
An NADH standard curve (data not shown) was generated using relative fluorescence units (RFUs) versus different concentrations of NADH and used as a reference for calculating the NADH produced from the Duarte GalT-PGM-G6PDH coupled assay. […]

[4] = target: Salmonella typhimurium YidA, recombinant wild type, SEQ ID NO: 1 (Salmonella enterica, UniProt Q8ZKY8); test: YidA phosphatase activity (malachite green), dephosphorylation of Glc-1-P; type: biochemical
Salmonella typhimurium YidA, recombinant wild type, SEQ ID NO: 1, sequence (Q8ZKY8 entry or part of it): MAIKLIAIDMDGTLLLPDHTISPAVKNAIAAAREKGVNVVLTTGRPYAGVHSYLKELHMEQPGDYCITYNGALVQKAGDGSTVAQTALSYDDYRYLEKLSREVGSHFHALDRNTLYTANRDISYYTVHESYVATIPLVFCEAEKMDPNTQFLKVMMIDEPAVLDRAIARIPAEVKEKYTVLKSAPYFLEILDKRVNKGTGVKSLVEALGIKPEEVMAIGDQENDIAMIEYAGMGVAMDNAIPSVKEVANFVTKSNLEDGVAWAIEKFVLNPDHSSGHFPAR
Text: The sugar phosphate phosphatase produced from an engineered cell can be identical to a naturally occurring one, such as YidA or YihX, but placed within a cell in which it is not naturally produced. Examples of this approach are given throughout. The sequence for YidA from Salmonella typhimurium can be found, for example, in NC_492731.1. This sequence corresponds to SEQ ID NO: 1. The gene ID is 1255358. The sequence for YihX from Salmonella typhimurium can be found, for example, in NC_462906.1. This corresponds to SEQ ID NO: 2. The gene ID is 1255552. In one example, genes encoding these proteins can be placed within a cell in which it is not naturally occurring.
Nearly homogeneous recombinant Salmonella YidA by overexpressing it in E. coli SixPack cells were obtained (Lipinszki et al. 2018) (FIG. 3A). N-terminal fusions with a small ubiquitin-like modifier (SUMO) domain were engineered to enhance solubility (Marblestone et al. 2006) and a His6 tag to facilitate affinity purification (FIG. 3A). […] Since YidA is a Mg^2+-dependent phosphatase, its activity with Glc-1-P in the presence of 0-5 mM MgCl2 was first tested and determined that 3 mM MgCl2 was optimal (FIG. 5). […]

E. coli YidA = conditions: Kuznetsova et al. 2006; cited from earlier work
[5] = target: Salmonella typhimurium YihX, recombinant wild type, SEQ ID NO: 2 (Salmonella enterica, UniProt Q7CPC8); test: Kinetic studies of YihX with Glc 1-P and Gal 1-P; type: biochemical; conditions: YihX refolded after denaturing purification
Salmonella typhimurium YihX, recombinant wild type, SEQ ID NO: 2, sequence (Q7CPC8 entry or part of it): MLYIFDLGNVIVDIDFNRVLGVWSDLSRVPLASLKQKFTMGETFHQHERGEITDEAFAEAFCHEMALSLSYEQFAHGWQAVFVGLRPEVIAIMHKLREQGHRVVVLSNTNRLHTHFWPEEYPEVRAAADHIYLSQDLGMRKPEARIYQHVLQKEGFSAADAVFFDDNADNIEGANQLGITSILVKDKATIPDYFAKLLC
Text: Salmonella YihX was purified after overexpression in E. coli BL21 (DE3) pLysS cells. His6-YihX was purified under denaturing conditions using immobilized metal-affinity chromatography. Following purification, YihX was refolded by stepdown dialysis to remove the denaturant.

[6] = McCorvie et al., 2013 (text: 2014)
[7] = mean ± SD of three independent trials

For `O=P(O)(O)O[C@H]1O[C@H](CO)[C@H](O)[C@H](O)[C@H]1O` [Gal-1-P, galactose-1-phosphate], which kcat ([1]; Crews et al., 2000) is on record?
Its kcat is 5,880 min^−1.

What about the kcat [1, 6] of the same compound?
The kcat was 816 min⁻¹.

What about the kcat ([1]; Tang et al., 2012, table value calculated from reported Vmax with 44 kDa) of the same compound?
Its kcat is 2,400 min^−1 and 2,122* min^−1.

What about the Km ([1]; Crews et al., 2000) of the same compound?
The Km was 400 µM.

And the Km [1, 6]?
The Km was 290 µM.

What about the Km ([1]; Tang et al., 2012) of the same compound?
The Km was 1250 µM.

What about the kcat [2, 7] of the same compound?
The kcat was 14.2 ± 1.33 s⁻¹ and 14.1 ± 0.75 s⁻¹.

And the kcat ([2]; single trials, ± curve-fit error, pH 8.0, 37° C., 1 mM UDP-glucose)?
Its kcat is 14.2 ± 1.33 s⁻¹ and 13.3 ± 1.05 s⁻¹ and 14.7 ± 1.17 s⁻¹.

What about the kcat [3, 7] of the same compound?
Its kcat is 4.32 ± 0.12 s⁻¹.

What about the kcat ([3]; single trials, ± curve-fit error, pH 8, 37° C., 0.8 mM UDP-glucose) of the same compound?
The kcat was 4.45 ± 0.2 s⁻¹ and 4.3 ± 0.067 s⁻¹ and 4.22 ± 0.2 s⁻¹.

Which kcat ([4]; mean ± SE of two independent trials) does the source give for `O=P(O)(O)O[C@H]1O[C@H](CO)[C@@H](O)[C@H](O)[C@H]1O` [Glc-1-P, α-D-glucose-1-phosphate] here?
The kcat was 14.2 ± 0.35 s⁻¹.

And the kcat ([4]; single trials, ± curve-fit error, pH 8, 37° C., 3 mM MgCl2)?
Its kcat is 13.9 ± 1.07 s⁻¹ and 14.6 ± 1.05 s⁻¹.

What about the Km (E. coli YidA) of the same compound?
The Km was 210 µM.

What about the kcat (E. coli YidA) of the same compound?
Its kcat is 20 s⁻¹.

What about the “specificity for Glc 1-P over Gal 1-P” value [5] of the same compound?
The value was 36 fold.
